Reference: patent publication US20040048790A1, “Inducing cellular immune responses to p53 using peptide and nucleic acid compositions” (priority 1999, published 2004)
Non-standard residues stand in square brackets, D forms with d. Residues, ends and D or L forms follow the SMILES beside them. Abu = CC[C@H](N)C(=O)O

What was measured:
[1] = test system: target cells pulsed with wild-type peptide; experiment: CTL recognition of targets pulsed with the wildtype peptide (51Cr release); format: cell-based, human; conditions: Number of donors yielding a positive response/total tested; Table XXVIIb
[2] = test system: 0.221A2.1 cell line, peptide-loaded target; experiment: Primary in vitro CTL induction, 51Cr release against targets pulsed with the induction peptide; conditions: Number of donors yielding a positive response/total tested; Table XXVIIb
A*0202 = A*0202 (Homo sapiens, UniProt P04439, D140Y/D185E/D98H/E176V/E277Q/G131W/G231S/I119L/I121R/I166T/I218V/L180W/L300P/L318F/N151K/N90K/P208A/P217A/Q67R/Q86G/Q94H/R138H/R169H/T345S); experiment: biochemical
A*0203 = A*0203 (Homo sapiens, UniProt P04439, A173T/D140Y/D185E/D98H/E277Q/G131W/G231S/I119V/I121R/I166T/I218V/L180W/L300P/L318F/N151K/N90K/P208A/P217A/Q86G/Q94H/R138H/R169H/T345S); experiment: biochemical
A*0206 = A*0206 (Homo sapiens, UniProt P04439, D140Y/D185E/D98H/E176V/E277Q/F33Y/G131W/G231S/I119V/I121R/I166T/I218V/L300P/L318F/N151K/N90K/P208A/P217A/Q86G/Q94H/R138H/R169H/T345S); experiment: biochemical
DRB1*0401 = DRB1*0401 (Homo sapiens, UniProt P01903+P01911, A100K/A169T/F76Y/I96L/K127E/L162R/M171V/N62H/P40V/Q125Y/R42H/S133A/S149N/S66Y/V115G/V209L/W38E); experiment: biochemical
DRB1*0701 = DRB1*0701 (Homo sapiens, UniProt P01903+P01911, A100R/A102G/A103Q/D57E/D86V/E43K/F76Y/K127E/L162R/M171V/P40G/Q125H/Q99D/R33Q/R42Y/R54Q/S133A/S66F/T210M/V115G/Y107V/Y59L/Y89S); experiment: biochemical

Structure (SMILES) | CTL Wild-type [1] | CTL Peptide [2] | IC50 (A*0202) [nM] | IC50 (A*0203) [nM] | IC50 (A*0206) [nM] | IC50 (DRB1*0401) [nM] | IC50 (DRB1*0701) [nM]
CC[C@H](NC(=O)[C@H](Cc1ccccc1)NC(=O)[C@H](CCSC)NC(=O)[C@H](CCCCN)NC(=O)[C@H](CC(N)=O)NC(=O)[C@H](CC(C)C)NC(=O)[C@H](C)N)C(=O)N[C@@H](CCC(N)=O)C(=O)N[C@H](C(=O)O)C(C)C [p53.129B7V9] (H-ALNKMF[Abu]QV-OH) | 0/3 | 2/4 | – | – | – | – | –
CC[C@H](NC(=O)[C@H](Cc1ccccc1)NC(=O)[C@H](CCSC)NC(=O)[C@@H](N)CCCCN)C(=O)N[C@@H](CCC(N)=O)C(=O)N[C@@H](CC(C)C)C(=O)N[C@@H](C)C(=O)N[C@@H](CCCCN)C(=O)N[C@H](C(=O)O)C(C)C [p53.132B4V9] (H-KMF[Abu]QLAKV-OH) | 0/4 | 5/5 | 13 | 9.1 | 37 | – | –
CC[C@H](C)[C@H](NC(=O)[C@H](CCC(N)=O)NC(=O)[C@H](CC(C)C)NC(=O)[C@@H](NC(=O)[C@H](Cc1ccccc1)NC(=O)[C@H](Cc1ccc(O)cc1)NC(=O)[C@H](CCC(=O)O)NC(=O)CNC(=O)[C@@H](N)CC(=O)O)[C@@H](C)O)C(=O)N[C@@H](CCCNC(=N)N)C(=O)NCC(=O)N[C@@H](CCCNC(=N)N)C(=O)N[C@@H](CCC(=O)O)C(=O)N[C@@H](CCCNC(=N)N)C(=O)N[C@@H](Cc1ccccc1)C(=O)O [p53.324] | – | – | – | – | – | > 10000 | > 10000
